# Measurements reported in patent US8859235B2, “Methods in cell cultures, and related inventions, employing certain additives” (priority 2009, dated 2014).
# Tests used:
# [1] = tested on: human cancer cells; conditions: due to SAPK and p38 MAPK signal pathway modulation; US 2004/024025; cited from earlier work
# [2] = tested on: E. coli HM125; assay: Growth and expression of FimH-CRD in E. coli HM125, shake flask cultivation in mineral medium; assay type: cell-based, Escherichia coli; conditions: for mg FimH/g cell: control 0.81; for FimH / Cell pellet: mean of triplicate; for FimH: control 6.48 ± 0.36; for Cell pellet: control 7.99 ± 0.25
# Text: Standard molecular techniques are used for the cloning of the FimH carbohydrate recognition domain (FimH-CRD). The plasmid pfimHs-trc, encoding FimH lectin domain (1-156 amino acids M. Vetsch P et. al. 2002—J. Mol. Biol. 322: 827-840), is kindly provided by R. Glockshuber (ETH Zürich, Switzerland). The FimH-CRD fragment is amplified by polymerase chain reaction using specific forward primer containing the restriction site NdeI and a specific reverse primer containing the thrombin cleavage site and the restriction site XhoI, respectively. The insert is ligated into the corresponding cloning site in pET21b. The resulting contrast is named pET21b-FimH-CRD.
# Precultures are prepared in 25 mL sterile LB medium [Tryptone (10.0 g/L), yeast extract (5.0 g/L), NaCl (10.0 g/L), ampicillin 100 (mg/L); adjusted to pH 7.0 with NaOH]. Cultures are inoculated with a glycerol stock stored at −80° C. of the protease deficient strain E. coli HM125 (Meerman H J & Georgiou G. 1994. Biotechnology (NY) 2, 1107-1110) harboring the plasmid pET21b-FimH-CRD Vector. Precultures are incubated at 37° C. for 10-12 h. Experimental cultures are performed in a volume of 500 mL of modified M9 medium [Na2HPO4×7H2O (12.8 g/L), KH2PO4 (3 g/L), NaCl (0.5 g/L), NH4Cl (1 g/L), D-glucose (4 g/L), MgSO4 (0.12 g/L), CaCl2 (0.01 g/L) and vitamins (in mg/L): riboflavin (0.1), choline chloride (1), folic Acid (1), niacinamide (1), p-amino benzoic acid (1), pyridoxal-HCl (1), thiamine-HCl (1), myo-lnositol (2)] supplemented with 100 mg/L ampicillin. Cultures are inoculated with 5 mL of the preoculture and grown at 30° C. and 150 rpm) until the optical density at 600 nm (0D600) reached 0.8-1.0. Then 1 mM IPTG and the stabilizer(s) (obligatory additive) according to the invention are added to final concentrations of 5, 10 and 20 mM as indicated from sterile stock solutions and the cultures are grown overnight. Then the cells are cooled on ice for 5 min and harvested by centrifugation at 5′000 rpm for 20 min at 4° C. Cell are harvested by centrifugation and biomass is quantified by weighing the wet cell pellets. The pellet is suspended in a cold solution of 50 mM Tris-HCl, pH 7.5, 150 mM NaCl, 5 mM EDTA, 1 mg/mL polymyxin B sulfate and stirred for two hours at 4° C. After centrifugation at 11′000 rpm for 20 min at 4° C., the supernatant (periplasmic extract) is dialyzed overnight against 50 mM NaH2PO4, 300 mM NaCl and 10 mM imidazole, pH 8 (binding buffer) and applied to a Ni-NTA column (Sigma, Buchs, Switzerland) attached to a BioLogic fast protein liquid chromatography system (BioRad, Reinach BL, Switzerland). The column is washed with binding buffer and afterwards eluted with 50 mM NaH2PO4, 300 mM NaCl and 250 mM imidazole, pH 8 (elution buffer). Fractions containing FimH-CRD-Th-6H is are pooled and dialyzed against water and then against 20 mM HEPES, 150 mM NaCl and 1 mM CaCl2, pH 7.4.
# The concentration of protein is determined by HPLC method (Agilent 1100/1200 series) using BSA as standard (Sigma). The column Poros R1/10 10 μm (100×2 mm, Morvay Analytik) is kept at 60° C.; eluents are A: 0.1% trifluoroacetic acid (TFA) in H2O and B: 90% MeCN+0.09% TFA. A gradient of 20% B to 90% B is run within 20 min at a flow rate of 0.2 mL/min. The detection is monitored at 210 nm. Results are compiled in the following tables 5 and 6.
structure (smiles),measurement,setting,value
"CC1(C)CCCC(C)(C)N1[O] [TEMPO, 2,2,6,6-Tetramethyl-1-piperidinyloxy radical, reference compound]",Apoptosis in human cancer cells,[1],increased apoptosis
same,mg FimH/g cell,[2]; additive 5 mM,1.14 mg FimH/g cell
same,FimH,[2]; additive 5 mM,8.85 ± 0.21 mg/L
same,Cell pellet,[2]; additive 5 mM,7.78 ± 0.45 g/L
same,mg FimH/g cell,[2]; additive 10 mM,1.15 mg FimH/g cell
same,FimH,[2]; additive 10 mM,8.61 ± 0.14 mg/L
same,Cell pellet,[2]; additive 10 mM,7.44 ± 0.32 g/L
same,mg FimH/g cell,[2]; additive 20 mM,1.26 mg FimH/g cell
same,FimH,[2]; additive 20 mM,8.26 ± 0.54 mg/L
same,Cell pellet,[2]; additive 20 mM,6.54 ± 0.2 g/L
